pKd: −log10 of the molar value. Bridge positions count the residues as written; N and C are the ends. Square brackets hold non-standard residues; d marks the D form. Peptide text beside a SMILES is read from it. hSer = N[C@@H](CCO)C(=O)O

The target in the first test is T1, DD(E) (Homo sapiens, UniProt P02671+P02675+P02679).
T1 construct: host or cells: purchased fibrinogen clotted with thrombin, digested with plasmin, then purified by ammonium sulfate cuts and Sephacryl S200
T1 sequence (P02671 130-216): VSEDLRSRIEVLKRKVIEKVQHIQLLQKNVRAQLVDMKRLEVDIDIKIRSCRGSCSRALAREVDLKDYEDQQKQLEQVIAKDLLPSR
T1 sequence (P02675 164-491): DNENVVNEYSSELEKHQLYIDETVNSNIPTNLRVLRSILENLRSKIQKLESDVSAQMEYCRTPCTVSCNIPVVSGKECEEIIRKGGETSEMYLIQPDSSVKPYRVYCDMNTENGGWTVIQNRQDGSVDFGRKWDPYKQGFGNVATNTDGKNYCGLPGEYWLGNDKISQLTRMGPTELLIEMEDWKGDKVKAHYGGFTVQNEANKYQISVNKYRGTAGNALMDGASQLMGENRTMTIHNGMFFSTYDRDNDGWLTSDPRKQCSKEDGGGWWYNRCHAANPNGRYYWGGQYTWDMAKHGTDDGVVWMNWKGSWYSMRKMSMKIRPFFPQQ
T1 sequence (P02679 114-432): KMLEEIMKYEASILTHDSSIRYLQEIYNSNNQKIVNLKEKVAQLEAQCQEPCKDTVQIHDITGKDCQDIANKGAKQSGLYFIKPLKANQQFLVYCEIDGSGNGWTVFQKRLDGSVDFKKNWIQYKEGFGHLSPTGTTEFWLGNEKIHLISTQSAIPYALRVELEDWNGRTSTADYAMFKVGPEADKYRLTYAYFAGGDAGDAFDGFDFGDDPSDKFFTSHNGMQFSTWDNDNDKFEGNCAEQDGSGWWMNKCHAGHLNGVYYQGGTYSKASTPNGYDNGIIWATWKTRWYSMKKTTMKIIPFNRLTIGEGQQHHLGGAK
T1 sequence (P02671 36-97): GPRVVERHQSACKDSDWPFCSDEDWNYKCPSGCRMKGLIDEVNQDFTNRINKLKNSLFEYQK
T1 sequence (P02675 45-152): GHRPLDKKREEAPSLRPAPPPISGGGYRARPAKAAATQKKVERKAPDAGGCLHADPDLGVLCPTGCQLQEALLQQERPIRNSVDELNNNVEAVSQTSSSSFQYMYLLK
T1 sequence (P02679 27-88): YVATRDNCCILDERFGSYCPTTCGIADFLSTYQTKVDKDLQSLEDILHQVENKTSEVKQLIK
The test is described as follows: dissociation constant against fibrin-derived polypeptide DD(E). The class given is binding. Particulars: cyclic peptides of Table 12; unit inferred; read-out: Kd against DD(E). The protocol:
The soluble fibrin-derived polypeptide DD(E) was prepared following a modification of a published method (Moskoitz and Budzynksi, Biochemistry, 33: 12937-12944 (1994) and references therein). Fibrinogen containing a Factor XIII trace impurity (1 g, Grade L; purchased from American Diagnostica) was dissolved in TBS buffer and dialyzed overnight against TBS containing 5 mM citrate. The fibrinogen concentration was adjusted to 3.0 mg/ml and CaCl2 was added to a concentration of 10 mM. Clotting of the fibrinogen was initiated by the addition of thrombin to 0.5 U/ml and the clot was incubated for 3 hours at 37° C. The clot was cut up with a spatula to release water and to concentrate the clot. The clot pieces were washed twice with TBS.Ca buffer (TBS containing 2 mM CaCl2) and were centrifuged at 4,000×g to compact the clots between washes. The clot material was resuspended in 250 ml TBS containing 25 mM CaCl2 and 2 K.I.U. plasmin per mg fibrin. The clots were digested overnight at 20° C. Undigested clot was removed by pipette, and the supernatant was shaken with 10 ml of Lysine Sepharose (Pharmacia) for 30 minutes and filtered to remove the resin. Aprotinin was added to the filtrate to a concentration of 500 U/μL. Ammonium Sulfate was added to 30% saturation and the precipitated protein was removed by centrifugation. More ammonium sulfate was added to the supernatant to a final concentration of 50% saturation, and the precipitated protein was concentrated by centrifugation. The pellets, containing DD(E), were resuspended in a small volume of buffer (50 mM Tris, 150 mM NaCl, 2 mM CaCl2) (<10 ml) and chromatographed on a Sephacryl S200 (Pharmacia) size exclusion column (5×100 cm) in the same buffer. Fractions of protein eluted from the column were assayed by SDS-PAGE for DD(E). DD(E) contains subunits of 55 kD (Fragment E) and 190 kD (Fragment DD). […]
Dissociation constants were determined against DD(E) as described above.
By pKd is commonly meant the Kd on a negative log10 scale, so that one unit is a factor of ten. Regarding `C[C@@H](O)[C@@H]1NC(=O)CNC(=O)[C@H](Cc2ccc(O)cc2)NC(=O)[C@H](Cc2ccc(O)cc2)NC(=O)[C@H](CC(=O)O)NC(=O)CNC(=O)CNC1=O` [(II)] (cyclo(GDYYGTG)), the pKd was < 3.30.

As for “side-chain-to-side-chain cyclic peptide bearing a central Tyr-Tyr-Gly-Thr moiety [(III)]”, the pKd is 3.75.

The test is the same for the next values; noted with them: read-out: Kd DD(E).
Consider `CC(C)C[C@H](NC(=O)[C@@H]1CSSC[C@H](NC(=O)[C@@H]2CCCN2C(=O)[C@@H](N)CC(C)C)C(=O)N[C@@H](CC(=O)O)C(=O)N[C@@H](Cc2ccc(O)cc2)C(=O)N[C@@H](Cc2ccc(O)cc2)C(=O)NCC(=O)N[C@@H](CN)C(=O)N1)C(=O)N[C@@H](CC(=O)O)C(N)=O` [SEQ ID NO: 49, LPCDYYGDprCLD], for which the pKd was < 3.30.

Turning to `CC[C@H](C)[C@H](NC(=O)[C@H](Cc1c[nH]c2ccccc12)NC(=O)[C@@H]1CSSC[C@H](NC(=O)[C@H](CCC(=O)O)NC(=O)[C@@H](N)Cc2c[nH]c3ccccc23)C(=O)N2CCC[C@H]2C(=O)N[C@@H](Cc2ccc(O)cc2)C(=O)NCC(=O)N[C@@H](CC(C)C)C(=O)N1)C(=O)N[C@@H](CCC(N)=O)C(N)=O` [SEQ ID NO: 61, WECPYGLCWIQ] (H-WECPYGLCWIQ-NH2; disulfide 3-8), the pKd was 6.03.

With `CC(C)C[C@H](NC(=O)[C@@H]1CSSC[C@H](NC(=O)[C@@H]2CCCN2C(=O)[C@@H](N)CC(C)C)C(=O)N[C@@H](CC(=O)O)C(=O)N[C@@H](Cc2ccc(O)cc2)C(=O)N[C@@H](Cc2ccc(O)cc2)C(=O)NCC(=O)N[C@@H](CCO)C(=O)N1)C(=O)N[C@@H](CC(=O)O)C(N)=O` [SEQ ID NO: 50, LPCDYYGHseCLD] (H-LPCDYYG[hSer]CLD-NH2; disulfide 3-9), the pKd is < 3.30.

For `CC(C)C[C@H](NC(=O)[C@@H]1CSSC[C@H](NC(=O)[C@@H]2CCCN2C(=O)[C@@H](N)CC(C)C)C(=O)N[C@@H](CO)C(=O)N[C@@H](Cc2ccc(O)cc2)C(=O)N[C@@H](Cc2ccc(O)cc2)C(=O)NCC(=O)N[C@@H]([C@@H](C)O)C(=O)N1)C(=O)N[C@@H](Cc1c[nH]cn1)C(N)=O` [SEQ ID NO: 12, LPCSYYGTCLH] (H-LPCSYYGTCLH-NH2; disulfide 3-9), the pKd was 5.01.

With `CC[C@H](C)[C@H](NC(=O)[C@H](Cc1c[nH]cn1)NC(=O)[C@@H]1CSSC[C@H](NC(=O)[C@@H](N)Cc2c[nH]cn2)C(=O)N2CCC[C@H]2C(=O)N[C@@H](Cc2ccc(O)cc2)C(=O)N[C@@H](CC(=O)O)C(=O)N[C@@H](CC(C)C)C(=O)N1)C(=O)N[C@@H](CC(C)C)C(N)=O` [SEQ ID NO: 59, HCPYDLCHIL] (H-HCPYDLCHIL-NH2; disulfide 2-7), the pKd was 5.42.

With `CC(C)C[C@H](N)C(=O)N1CCC[C@H]1C(=O)N[C@H]1CSSC[C@@H](C(=O)N[C@@H](C)C(=O)N[C@@H](CC(=O)O)C(N)=O)NC(=O)[C@H]([C@@H](C)O)NC(=O)CNC(=O)[C@H](Cc2ccc(O)cc2)NC(=O)[C@H](Cc2ccc(O)cc2)NC(=O)[C@H](CC(=O)O)NC1=O` [SEQ ID NO: 47, LPCDYYGTCAD] (H-LPCDYYGTCAD-NH2; disulfide 3-9), the pKd was 5.00.

`C[C@@H](O)[C@@H]1NC(=O)CNC(=O)[C@H](Cc2ccc(O)cc2)NC(=O)[C@H](Cc2ccc(O)cc2)NC(=O)[C@H](CC(=O)O)NC(=O)[C@@H](NC(=O)[C@@H]2CCCN2C(=O)[C@@H](N)CCCNC(=N)N)CSSC[C@@H](C(=O)N[C@@H](Cc2ccccc2)C(=O)N[C@@H](CC(=O)O)C(N)=O)NC1=O` [SEQ ID NO: 8, RPCDYYGTCFD] (H-RPCDYYGTCFD-NH2; disulfide 3-9): the pKd is 5.47.

As for `CC(C)C[C@H](NC(=O)[C@@H]1CSSC[C@H](NC(=O)[C@@H]2CCCN2C(=O)[C@@H](N)CCCNC(=N)N)C(=O)N[C@@H](CC(N)=O)C(=O)N[C@@H](Cc2ccc(O)cc2)C(=O)N[C@@H](Cc2ccc(O)cc2)C(=O)NCC(=O)N[C@@H]([C@@H](C)O)C(=O)N1)C(=O)N[C@@H](Cc1c[nH]cn1)C(N)=O` [SEQ ID NO: 16, RPCNYYGTCLH] (H-RPCNYYGTCLH-NH2; disulfide 3-9), the pKd was 5.40.

As to `CC(C)C[C@H](NC(=O)[C@@H]1CSSC[C@H](N)C(=O)N[C@@H](CC(=O)O)C(=O)N[C@@H](Cc2ccc(O)cc2)C(=O)N[C@@H](Cc2ccc(O)cc2)C(=O)NCC(=O)N[C@@H]([C@@H](C)O)C(=O)N1)C(N)=O` [compound 33] (H-CDYYGTCL-NH2; disulfide 1-7), the pKd was 4.66.

As to `CC(C)C[C@H](NC(=O)[C@@H]1CSSC[C@H](NC(=O)[C@@H]2CCCN2)C(=O)N[C@@H](CC(=O)O)C(=O)N[C@@H](Cc2ccc(O)cc2)C(=O)N[C@@H](Cc2ccc(O)cc2)C(=O)NCC(=O)N[C@@H]([C@@H](C)O)C(=O)N1)C(N)=O` [compound 32] (H-PCDYYGTCL-NH2; disulfide 2-8), the pKd is 4.30.

`CC[C@H](C)[C@H](NC(=O)[C@H](Cc1c[nH]cn1)NC(=O)[C@@H]1CSSC[C@H](NC(=O)[C@H](Cc2c[nH]cn2)NC(=O)[C@H](Cc2ccccc2)NC(=O)[C@@H](N)Cc2c[nH]c3ccccc23)C(=O)N2CCC[C@H]2C(=O)N[C@@H](Cc2ccc(O)cc2)C(=O)N[C@@H](CC(=O)O)C(=O)N[C@@H](CC(C)C)C(=O)N1)C(=O)N[C@@H](CC(C)C)C(N)=O` [SEQ ID NO: 21, W F H C P Y D L C H I L] (H-WFHCPYDLCHIL-NH2; disulfide 4-9; N-terminus and C-terminus assumed): the pKd was 5.58.

Regarding `CC(C)C[C@H](NC(=O)[C@@H]1CSSC[C@H](NC(=O)[C@@H]2CCCN2C(=O)[C@@H](N)CC(C)C)C(=O)N[C@@H](CC(=O)O)C(=O)N[C@@H](Cc2ccc(O)cc2)C(=O)N[C@@H](Cc2ccc(O)cc2)C(=O)NCC(=O)N[C@@H](C(C)C)C(=O)N1)C(=O)N[C@@H](CC(=O)O)C(N)=O` [SEQ ID NO: 51, LPCDYYGVCLD] (H-LPCDYYGVCLD-NH2; disulfide 3-9), the pKd is 4.55.

With `C[C@@H](O)[C@@H]1NC(=O)CNC(=O)[C@H](Cc2ccc(O)cc2)NC(=O)[C@H](Cc2ccc(O)cc2)NC(=O)[C@H](CC(=O)O)NC(=O)[C@@H](N)CSSC[C@@H](C(N)=O)NC1=O` [compound 34] (H-CDYYGTC-NH2; disulfide 1-7), the pKd was 4.42.

Consider `CC(C)C[C@H](NC(=O)[C@@H]1CSSC[C@H](NC(=O)[C@H](C)NC(=O)[C@@H](N)CC(C)C)C(=O)N[C@@H](CC(=O)O)C(=O)N[C@@H](Cc2ccc(O)cc2)C(=O)N[C@@H](Cc2ccc(O)cc2)C(=O)NCC(=O)N[C@@H]([C@@H](C)O)C(=O)N1)C(=O)N[C@@H](CC(=O)O)C(N)=O` [SEQ ID NO: 41, LACDYYGTCLD] (H-LACDYYGTCLD-NH2; disulfide 3-9), for which the pKd is 5.54.

In the case of `CC[C@H](C)[C@H](NC(=O)[C@H](Cc1c[nH]c2ccccc12)NC(=O)[C@@H]1CSSC[C@H](NC(=O)[C@H](CCC(=O)O)NC(=O)[C@@H](N)Cc2c[nH]c3ccccc23)C(=O)N2CCC[C@H]2C(=O)N[C@@H](Cc2ccc(O)cc2)C(=O)NCC(=O)N[C@@H](CC(C)C)C(=O)N1)C(N)=O` [SEQ ID NO: 63, WECPYGLCWI] (H-WECPYGLCWI-NH2; disulfide 3-8; N-terminus and C-terminus assumed), the pKd was 5.41.

On to `CC(C)C[C@H](NC(=O)[C@@H]1CSSC[C@H](NC(=O)[C@@H]2CCCN2C(=O)[C@@H](N)CC(C)C)C(=O)N[C@@H](CC(=O)O)C(=O)N[C@@H](C)C(=O)N[C@@H](Cc2ccc(O)cc2)C(=O)NCC(=O)N[C@@H]([C@@H](C)O)C(=O)N1)C(=O)N[C@@H](CC(=O)O)C(N)=O` [SEQ ID NO: 43, LPCDAYGTCLD] (H-LPCDAYGTCLD-NH2; disulfide 3-9), for which the pKd was 5.35.

For the molecule `CC[C@H](C)[C@H](NC(=O)[C@H](Cc1c[nH]cn1)NC(=O)[C@@H]1CSSC[C@H](NC(=O)[C@H](Cc2c[nH]cn2)NC(=O)[C@H](Cc2ccccc2)NC(=O)CN)C(=O)N2CCC[C@H]2C(=O)N[C@@H](Cc2ccc(O)cc2)C(=O)N[C@@H](CC(=O)O)C(=O)N[C@@H](CC(C)C)C(=O)N1)C(=O)N[C@@H](CC(C)C)C(N)=O` [SEQ ID NO: 57, GFHCPYDLCHIL] (H-GFHCPYDLCHIL-NH2; disulfide 4-9 (inferred); N-terminus and C-terminus assumed), the pKd is 5.17.

For H-DYYGT-NH2 [compound 35], the pKd is < 4.00.

The same test, now with this note: sequences of phage isolates from TN10-9 and TN6-6 libraries (Table 5); read-out: Kd DD(E).
On to WFHCPYDLCHIL [compound 21], for which the pKd was 5.85.

Turning to QWECPYGLCWIQ [compound 22], the pKd is 6.13.

Regarding NHGCYNSYGVPYCDYS [compound 18], the pKd is 5.57.

For the molecule RFLCYDSYYHWWCSHH [compound 19], the pKd was ~5.00.

Values taken from patent US20050261472A1, “Binding moieties for fibrin” (Dyax Corp., priority 1999, published 2005).
